In US20230399296A1, “RNA VIRUS INHIBITOR COMPOUNDS WITH IMPROVED METABOLIC STABILITY AND USES THEREOF” (priority 2022, published 2023):

How the values were obtained:
[1] = Microsomal stability, mouse liver microsomes; format: in vitro ADME
Procedure: (§1) Experiments were performed to assess the stability of the compounds in the presence of mouse and human liver microsomes. The experimental procedures there were used are described below. Examples of the percent remaining of the compound curves in the presence of human microsomes are shown in FIGS. 2A to 2F, and examples of the determined half-life are provided in TABLE 3.
(§2) Intermediate solution: 5 μL of compound and control stock solution (10 mM in dimethyl sulfoxide (DMSO)) were diluted with 495 μL of acetonitrile (ACN) (intermediate solution concentration: 100 μM, 99% ACN).
(§3) Working solution: 50 μL of compound and control intermediate solution (100 μM) were diluted with 450 μL of 100 mM potassium phosphate buffer (working solution concentration: 10 μM, 9.9% ACN).
(§4) The appropriate amount of NADPH powder was weighed and diluted into a 10 mM MgCl2 solution (working solution concentration: 10 unit/mL; final concentration in reaction system: 1 unit/mL).
(§5) The appropriate concentrations of microsome working solutions were prepared in 100 mM potassium phosphate buffer.
(§6) Cold (4° C.) acetonitrile (ACN) containing 200 ng/mL tolbutamide and 200 ng/mL labetalol as internal standards (IS) was used as the stop solution.
(§7) Using an Apricot automation workstation, 10 μL/well of compound working solution were added to all 96-well reaction plates except the blank (T0, T5, T10, T20, T30, T60, and NCF60). An Apricot automation workstation was used to add 80 μL/well of microsome solution to all reaction plates (Blank, T0, T5, T10, T20, T30, T60, and NCF60). All reaction plates containing mixtures of compound and microsomes were pre-incubated at 37° C. for 10 minutes. An Apricot automation workstation was used to add 10 μL/well of 100 mM potassium phosphate buffer to reaction plate NCF60. Reaction plate NCF60 was incubated at 37° C., and timer 1 was started. After pre-incubation, an Apricot automation workstation was used to add 10 μL/well of NADPH regenerating system to every reaction plate except NCF60 (Blank, T0, T5, T10, T20, T30, and T60) to start the reaction. The reaction plates were incubated at 37° C., and timer 2 was started. An Apricot automation workstation was used to add 300 μL/well of stop solution to each reaction plate at its appropriate end time point to terminate the reaction. Each plate was sealed and shaken for 10 minutes. After shaking, each plate was centrifuged at 4000 rpm and 4° C. for 20 minutes. During centrifugation, an Apricot automation workstation was used to add 300 μL/well of HPLC grade water to eight new 96-well plates. After centrifugation, an Apricot automation workstation was used to transfer 100 μL of supernatant from each reaction plate to its corresponding bioanaylsis plate. Each bioanalysis plate was sealed and shaken for 10 minutes prior to LC-MS/MS analysis.
(§8) The equation of first order kinetics was used to calculate T½: […]

[2] = Microsomal stability, human liver microsomes; format: in vitro ADME
Procedure: as §1, §2, §3, §4, §5, §6, §7, §8

in vitro = format: cell-based; settings: male, human (A549); green monkey (Vero E6)
Procedure: Cell viability was measured using the CellTiter-Glo luminescent cell viability assay (Promega). Separately A549 (human lung epithelial) cells and VeroE6 cells were seeded at 5×10^3 cells/well in 96-well plates and incubated overnight before treatment. Compounds were solubilized in DMSO and added to cells in an eight-point four-fold serial dilution (200 μM to 0.0122 μM). Cells were incubated in the presence of compounds for 24 hours before addition of the luminescence substrate and measurement of ATP activity according to manufacturer's instructions. The percentage of viable cells was calculated relative to cells treated with solvent alone (0.5% DMSO).

SARS-CoV-2 = SARS-CoV-2 plaque reduction assay in Vero E6 cells; format: cell-based; settings: Severe acute respiratory syndrome coronavirus 2, Vero C1008, 48 h, read-out: SARS-CoV-2 Antiviral EC50
SARS-CoV-2 3CLP = SARS-CoV-2 3CLP (Severe acute respiratory syndrome coronavirus 2 (2019-nCoV) (SARS-CoV-2), UniProt P0DTD1); experiment: SARS-CoV-2 3CLP FRET inhibition assay; format: biochemical; settings: 80 nM SARS-CoV-2 3CLP, 100 μM FRET substrate, pH 7.8, 37° C.; read-out: 3CL Protease IC50
Excerpt: Compounds described herein were screened for SARS-CoV-2 3CLP inhibition using a Fluorescence resonance energy transfer (FRET) assay at different compound concentrations. Examples of the resulting concentration response curves are shown in FIGS. 1A and 1B, and examples of the determined 50 percent inhibition concentration (IC50) are provided in TABLE 1.
A synthesized fluorescent substrate containing the cleavage site (indicated by the arrow, ↓) of SARS-CoV-2 3CLP (2-Abz-SVTLQ↓SG-Tyr(NO2)—R—NH2) was used for the fluorescence resonance energy transfer (FRET)-based cleavage assay. The protease reaction of SARS-CoV-2 3CLP towards fluorescent substrate was performed in activity buffer (20 mM Bis Tris, pH 7.8, 1 mM DTT) at 37° C. for 10 min. The final concentration of protease used in the assay was fixed at 80 nM and the concentrations of the substrate were varied from 0.1 to 500 μM. Reaction was started with the enzyme and the fluorescence signal of the Abz-SVTLQ peptide cleavage product was monitored at an emission wavelength of 420 nm with excitation at 320 nm, using an Flx800 fluorescence spectrophotometer (BioTek). Before kinetic calculations, it was verified that the proportionality between the fluorescence emitted and the amount of the substrate used in the assay was linear. The minimal concentration of the enzyme and time of reaction that gave a linear dependence of amount of generated product with time was chosen. Initial velocities in corresponding relative fluorescence units per unit of time (ARFU/s) were converted to the amount of the cleaved substrate per unit of time (M/s) by fitting to the calibration curve of free Aminobenzoyl-SVTLQ. All data are corrected for inner filter effects by an adopted literature protocol. In short, the fluorescence signal (RFU) at each substrate concentration was determined and defined as f(FRET). Then, 5 μL free Aminobenzoyl-SVTLQ at final 5 μM was added to each concentration and fluorescence was taken f(FRET+Aminobenzoyl-SVTLQ). Simultaneously, a reference reading was taken with the same free Aminobenzoyl-SVTLQ concentration and defined as f(ref). The inner-filter correction was obtained as:
Stock solutions of the compounds were prepared with DMSO. For the determination of the IC50, 80 nM of SARS-CoV-2 3CLP was incubated with the compounds at various concentrations from 0 to 100 μM in 20 mM Bis-Tris, pH 7.8, 1 mM DTT at 37° C. for 10 min. The protease reaction was started by addition of 100 μM of the substrate. The GraphPad Prism 6.0 software (GraphPad) was used for the calculation of the IC50 values.

[3] = mouse liver microsomes, NADPH, 37° C., read-out: Mouse Microsomes Half-life
[4] = human liver microsomes, NADPH, 37° C., read-out: Human Microsomes Half-life

SMILES	half-life at 1 μM ([1]; mouse, microsomes)	half-life at 1 μM ([2]; human, microsomes)	half-life at 1 μM [1, 3]	CC50 at 24 h (in vitro)	EC50 (SARS-CoV-2)	half-life at 1 μM [2, 4]	IC50 (SARS-CoV-2 3CLP)
COc1cccc2[nH]c(C(=O)N[C@@H](CC(C)C)C(=O)N[C@@H](C[C@@H]3CCCNC3=O)C(=O)CO)cc12 [AVI-8004, reference compound]	12 min	34 min	–	–	–	–	–
COc1cccc2[nH]c(C(=O)N[C@@H](CC(C)C)C(=O)N[C@H](C#N)C[C@@H]3CCCNC3=O)cc12 [AVI-8059, reference compound]	10 min	16 min	–	–	–	–	–
O=C(N[C@@H](CC1CC1)C(=O)N[C@@H](C[C@@H]1CCCNC1=O)C(=O)CO)c1cc2cc(F)cc(F)c2[nH]1 [Compound 1, N-[(2S)-3-cyclopropyl-1-({(2S)-4-hydroxy-3-oxo-1-[(3S)-2-oxopiperidin-3-yl]butan-2-yl}amino)-1-oxopropan-2-yl]-5,7-difluoro-1H-indole-2-carboxamide]	–	–	57 min	> 200 µM	< 10 µM	46 min	< 0.05 µM
O=C(N[C@@H](CC1CC1)C(=O)N[C@@H](C[C@@H]1CCCNC1=O)C(=O)CO)c1cc2cccc(Cl)c2[nH]1 [Compound 2, 7-chloro-N-[(2S)-3-cyclopropyl-1-({(2S)-4-hydroxy-3-oxo-1-[(3S)-2-oxopiperidin-3-yl]butan-2-yl}amino)-1-oxopropan-2-yl]-1H-indole-2-carboxamide]	–	–	15 min	> 200 µM	< 5 µM	26 min	< 0.05 µM
O=C(N[C@@H](CC1CC1)C(=O)N[C@@H](C[C@@H]1CCNC1=O)C(=O)CO)c1cc2cc(F)cc(F)c2[nH]1 [Compound 3, N-[(2S)-3-cyclopropyl-1-({(2S)-4-hydroxy-3-oxo-1-[(3S)-2-oxopyrrolidin-3-yl]butan-2-yl}amino)-1-oxopropan-2-yl]-5,7-difluoro-1H-indole-2-carboxamide]	–	–	124 min	> 200 µM	< 5 µM	> 145 min	< 0.01 µM
O=C(N[C@@H](CC1CC1)C(=O)N[C@@H](C[C@@H]1CCNC1=O)C(=O)CO)c1cc2cccc(Cl)c2[nH]1 [Compound 4, 7-chloro-N-[(2S)-3-cyclopropyl-1-({(2S)-4-hydroxy-3-oxo-1-[(3S)-2-oxopyrrolidin-3-yl]butan-2-yl}amino)-1-oxopropan-2-yl]-1H-indole-2-carboxamide]	–	–	38 min	> 200 µM	< 5 µM	76 min	< 0.01 µM
O=C(N[C@@H](CC1CC1)C(=O)N[C@@H](C[C@@H]1CCNC1=O)C(=O)CO)c1cc2cccc(F)c2[nH]1 [Compound 5, N-[(2S)-3-cyclopropyl-1-({(2S)-4-hydroxy-3-oxo-1-[(3S)-2-oxopyrrolidin-3-yl]butan-2-yl}amino)-1-oxopropan-2-yl]-7-fluoro-1H-indole-2-carboxamide]	–	–	124 min	> 200 µM	5 to 10 µM	> 145 min	< 0.05 µM
O=C(N[C@@H](CC1CC1)C(=O)N[C@@H](C[C@@H]1CCCNC1=O)C(=O)CO)c1cc2cccc(F)c2[nH]1 [Compound 9, N-[(2S)-3-cyclopropyl-1-({(2S)-4-hydroxy-3-oxo-1-[(3S)-2-oxopiperidin-3-yl]butan-2-yl}amino)-1-oxopropan-2-yl]-7-fluoro-1H-indole-2-carboxamide]	–	–	91 min	> 200 µM	< 5 µM	74 min	< 0.01 µM
CC(C)[C@H](N)C(=O)OCC(=O)[C@H](C[C@@H]1CCCNC1=O)NC(=O)[C@H](CC1CC1)NC(=O)c1cc2cc(F)cc(F)c2[nH]1.Cl [Compound 17, (3S)-3-{[3-cyclopropyl-N-(5,7-difluoro-1H-indole-2-carbonyl)-L-alanyl]amino}-2-oxo-4-[(3S)-2-oxopiperidin-3-yl]butyl L-valinate hydrochloride Salt]	–	–	6 min	> 200 µM	< 5 µM	6 min	< 0.05 µM
N#C[C@H](C[C@@H]1CCCNC1=O)NC(=O)[C@H](CC1CC1)NC(=O)c1cc2cccc(Cl)c2[nH]1 [PBI-0451, reference compound]	12 min	11 min	–	–	–	–	–
CC(C)(C)[C@H](NC(=O)C(F)(F)F)C(=O)N1C[C@H]2[C@@H]([C@H]1C(=O)N[C@H](C#N)C[C@@H]1CCNC1=O)C2(C)C [nirmatrelvir, reference compound]	15 min	40 min	–	–	–	–	–
